Legend:
Assay in all cases: Stopped-Flow kinetic assay, carbonic anhydrase inhibition
CA XII = CA XII (Homo sapiens, UniProt O43570)
Protocol: (§1) All hybrid compounds and individual CAI moieties with OH/SH group were tested for inhibition of off-target isoforms CA I and II and CAI IV, IX and XII by a Stopped-Flow kinetic assay.

CA IX = CA IX (Homo sapiens, UniProt Q16790)
Protocol: as §1

CA I = CA I (Homo sapiens, UniProt P00915)
Protocol: as §1

CA II = CA II (Homo sapiens, UniProt P00918)
Protocol: as §1

CA IV = CA IV (Homo sapiens, UniProt P22748)
Sequence of CA IV (P22748 19-284): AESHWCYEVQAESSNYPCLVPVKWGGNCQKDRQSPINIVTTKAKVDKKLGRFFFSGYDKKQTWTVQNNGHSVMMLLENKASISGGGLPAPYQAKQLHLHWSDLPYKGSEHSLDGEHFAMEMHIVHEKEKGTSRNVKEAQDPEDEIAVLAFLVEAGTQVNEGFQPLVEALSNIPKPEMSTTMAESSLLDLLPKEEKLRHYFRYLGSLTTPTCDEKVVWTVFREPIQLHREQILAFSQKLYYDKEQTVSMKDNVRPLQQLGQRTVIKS
Protocol: as §1

Sequence of CA XII (O43570 25-354): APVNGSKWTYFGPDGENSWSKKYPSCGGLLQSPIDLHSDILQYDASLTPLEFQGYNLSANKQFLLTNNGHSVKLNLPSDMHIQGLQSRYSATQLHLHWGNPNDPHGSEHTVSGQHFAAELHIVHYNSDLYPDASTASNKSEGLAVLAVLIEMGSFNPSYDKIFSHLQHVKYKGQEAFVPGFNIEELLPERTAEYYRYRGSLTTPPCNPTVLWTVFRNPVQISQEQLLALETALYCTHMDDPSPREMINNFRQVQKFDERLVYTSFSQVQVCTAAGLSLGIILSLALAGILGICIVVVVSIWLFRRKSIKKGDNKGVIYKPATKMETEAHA
Sequence of CA I (P00915 whole entry): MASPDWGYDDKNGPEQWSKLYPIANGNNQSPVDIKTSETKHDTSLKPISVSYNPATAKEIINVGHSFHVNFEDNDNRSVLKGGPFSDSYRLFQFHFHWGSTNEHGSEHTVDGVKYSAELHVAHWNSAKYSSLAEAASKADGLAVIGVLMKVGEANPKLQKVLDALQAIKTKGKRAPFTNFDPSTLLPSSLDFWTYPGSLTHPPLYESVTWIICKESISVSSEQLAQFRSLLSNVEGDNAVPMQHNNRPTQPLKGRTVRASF

SMILES | Ki (CA XII) [nM] | Ki (CA IX) [nM] | Ki (CA I) [µM] | Ki (CA II) [µM] | Ki (CA IV) [nM]
Cc1c(OCC(F)(F)F)ccnc1C[S+]([O-])c1nc2ccccc2n1C(=O)OCCOc1ccc2oc(=O)ccc2c1 (stereo not shown) [Compound A1, 2-((2-Osso-2H-cromen-6-il)ossi)etil 2-(((3-metil-4-(2,2,2-trifluoroetossi)piridin-2-il)metil)sulfinil)-1H-benzo[d]imidazolo-1 carbossilato] | 53 | 79.2 | > 10 | > 10 | 14.4
Cc1c(OCC(F)(F)F)ccnc1C[S+]([O-])c1nc2ccccc2n1C(=O)OCCOc1ccc2ccc(=O)oc2c1 (stereo not shown) [Compound A2, 2-((2-Oxo-2H-chromen-7-yl)oxy)ethyl 2-(((3-methyl-4-(2,2,2-trifluoroethoxy)pyridin-2-yl)methyl)sulfinyl)-1H-benzo[d]imidazole-1 carboxylate] | 60.3 | 97.2 | > 10 | > 10 | 10.3
Cc1c(OCC(F)(F)F)ccnc1C[S+]([O-])c1nc2ccccc2n1C(=O)OCCCOc1ccc2oc(=O)ccc2c1 (stereo not shown) [Compound A3] | 8.9 | 41.6 | > 10 | > 10 | 6.4

More lines, now with the values ahead:

Ki (CA XII) [nM] | Ki (CA IX) [nM] | Ki (CA I) [µM] | Ki (CA II) [µM] | Ki (CA IV) [nM] | SMILES
20.6 | 47 | > 10 | > 10 | 7.7 | Cc1c(OCC(F)(F)F)ccnc1C[S+]([O-])c1nc2ccccc2n1C(=O)OCCCOc1ccc2ccc(=O)oc2c1 (stereo not shown) [Compound A4]
 | 306 | > 10 | > 10 |  | O=c1ccc2cc(OCCO)ccc2o1 [Compound G1A, 6-(2-hydroxyethoxy)-2H-chromen-2-one]
 | 334 |  | > 10 |  | O=c1ccc2ccc(OCCO)cc2o1 [Compound G1B, 7-(2-idrossietossi)-2H-cromen-2-one]

Source: patent US20250099446A1, “HYBRID PHARMACEUTICAL COMPOSITION OBTAINED BY CONJUGATION OF A PROTON PUMP INHIBITOR AND A CARBON ANHYDRASE INHIBITOR” (EXO LAB ITALIA, S.r.l., priority 2022, published 2025)
